Consider seven compounds from patent US4711886A, “β-lactam derivatives as anti-inflammatory and antidegenerative agents” (Merck & Co., Inc., priority 1984, dated 1987).

The target of the assay is T1, Human Polymorphonuclear Leukocyte Elastase (Homo sapiens, UniProt P08246).
T1 construct: Crude extract of human polymorphonuclear leukocytes (PMN) containing elastase activity; endogenous in cells; host or cells: human polymorphonuclear leukocytes (crude extract)
T1 sequence (P08246 30-247 limits assumed): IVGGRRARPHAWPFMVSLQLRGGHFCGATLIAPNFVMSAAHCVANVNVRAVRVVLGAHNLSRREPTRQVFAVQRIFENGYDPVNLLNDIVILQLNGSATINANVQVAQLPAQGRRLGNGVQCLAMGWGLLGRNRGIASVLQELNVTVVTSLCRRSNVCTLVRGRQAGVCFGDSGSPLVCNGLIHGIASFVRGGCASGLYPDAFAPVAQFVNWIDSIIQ
Description: Inhibition of human polymorphonuclear leukocyte elastase via hydrolysis of N-t-Boc-alanyl-alanyl-prolyl-alanine-p-nitroanilide. Type of assay: biochemical. The conditions noted are these: 50% inhibition of enzyme activity 2 minutes after zero time, crude PMN extract, Boc-AAPAN substrate, pH 7.5. The method, then: Enzyme Assays for the Inhibition of Human Polymorphonuclear Leukocyte Elastase Via Hydrolysis of N-t-Boc-alanyl-alanyl-prolylalanine-p-nitroanilide
0.05M TES (N-tris[hydroxymethyl]methyl-2-amino-ethanesulfonic acid) buffer, pH 7.5.
0.2 mM N-t-Boc-alanyl-alanyl-prolyl-alanine-p-nitroanilide (Boc-AAPAN).
To prepare substrate, the solid (m.w. 550) was first dissolved in 10.0 ml DMSO. Buffer at pH 7.5 was then added to a final volume of 100 ml.
Crude extract of human polymorphonuclear leukocytes (PMN) containing elastase activity.
Inhibitors (β-lactam derivatives) to be tested dissolved in DMSO just before use.
To 1.0 ml of 0.2 mM Boc-AAPAN in a cuvette, 0.01-0.1 ml of DMSO with or without inhibitor was added. After mixing, a measurement was taken at 410 mμ to detect any spontaneous hydrolysis due to presence of test compound. 0.05 Milliliters of PMN extract was then added and the ΔOD/min at 410 mμ was measured and recorded. Beckman model 35 spectrophotometer was used.
The elastase activity in the crude PMN extract may vary from one preparation to another. A control of each new batch is run, and the volume added in the assay procedure is adjusted according to activity.

[1] abbreviates: Table III, penems, read-out: IC50 (converted).

Like-named read-outs stand apart in the source and are kept apart here.

Consider `CCOC1=C(C(=O)OCc2ccccc2)N2C(=O)CC2S1` (stereo not shown), for which the IC50 under setting [1] was 6.55 µM.

Consider `O=C(O)[C@H]1/C(=C/CO)O[C@@H]2CC(=O)N21` [clavulanic acid, reference compound], for which the concentration for half-maximal inhibition (IC50) result (Table IV, clavulanic acid series) is “inactive”.

With `COC1C(=O)N2C(C(=O)OCc3ccccc3)=C(COC(C)=O)SC12` (stereo not shown), under setting [1], the IC50 is 11 µM.

With `O=C(OCc1ccccc1)C1C(=CCO)OC2CC(=O)N21` (stereo not shown) [B1 = CH2 C6 H5], the IC50 (Table IV, clavulanic acid series, read-out: IC50 (converted)) is 10.4 µM.

With `CC1=C(C(=O)OCc2ccccc2)N2C(=O)C[C@H]2S1` [R1 = H, n = 0, M = CH3, B = OCH2 C6 H5, benzyl 2-methylpenem-3-carboxylate], the IC50 under setting [1] was 14.5 µM.

As to `CCSC1=C(C(=O)OCc2ccc([N+](=O)[O-])cc2)N2C(=O)C(C(C)O)C2S1` (stereo not shown), the IC50 under setting [1] was 4.87 µM.

Take `CCSC1=C(C(=O)OCc2ccc([N+](=O)[O-])cc2)N2C(=O)C(C(C)OC(=O)OCc3ccccc3)C2S1` (stereo not shown): under setting [1], the IC50 is 0.367 µM.

What is called IC50 is the midpoint of a concentration-inhibition curve.
